Assay results taken from patent publication US10973748B2, “Compositions and methods for lightening skin and reducing hyperpigmentation” (Versitech Limited, priority 2016, dated 2021).

Assays:
tyrosinase = target: T1, tyrosinase (Mus musculus, UniProt P11344); experiment: Cellular tyrosinase activity assay (L-DOPA oxidation in cell lysates); assay type: cell-based, murine; details: melan-a cells, α-MSH, 72 hrs; 6-CEPN 10 or 20 μM, 8-CEPQ 2.5 or 5 μM
T1 construct: endogenous in cells; host or cells: melan-a cells
T1 sequence (P11344 19-533): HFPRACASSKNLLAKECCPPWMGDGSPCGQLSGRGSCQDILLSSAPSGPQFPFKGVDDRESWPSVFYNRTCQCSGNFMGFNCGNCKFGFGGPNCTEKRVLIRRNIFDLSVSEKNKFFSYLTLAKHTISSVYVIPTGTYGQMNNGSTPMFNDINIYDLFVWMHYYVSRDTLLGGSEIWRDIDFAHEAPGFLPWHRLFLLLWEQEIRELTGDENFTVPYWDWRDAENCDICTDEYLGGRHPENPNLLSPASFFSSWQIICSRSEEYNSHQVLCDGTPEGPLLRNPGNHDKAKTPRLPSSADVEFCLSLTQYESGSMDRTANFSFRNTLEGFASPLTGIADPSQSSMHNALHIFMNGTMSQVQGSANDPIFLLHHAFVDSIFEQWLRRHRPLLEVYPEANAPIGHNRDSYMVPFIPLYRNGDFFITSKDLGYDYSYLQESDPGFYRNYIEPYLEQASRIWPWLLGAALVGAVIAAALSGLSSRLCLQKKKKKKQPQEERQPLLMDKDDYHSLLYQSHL
Procedure: Cellular tyrosinase activity was determined by measuring the oxidation of L-3,4-dihydroxyphenylalanine (L-DOPA) to dopachrome in cell lysates. Melan-a cells (1.5×10^5 cells/well) were plated in 1 mL of culture medium in a 24-well multidishes for at least 24 hrs prior to use. The cells were treated with α-MSH (1 μM) alone or with α-MSH plus different concentrations of testing agents for 72 hrs. The cells were washed with cold PBS and lysed in 900 μL of PBS with 1% Triton X-100. After being freeze-thawed at −80° C. for 30 min followed by 25° C. for 30 min, 100 μL of 10 mM L-DOPA was then added to each well. Following incubation at 37° C. for 1 hr, the absorbance of the agents was measured at 490 nm using Victor X4 Multilabel Plate Reader (PerkinElmer, Mass., USA).

melan-a cells = experiment: Melanosome autophagy by fluorescence microscopy; assay type: cell-based, murine; details: α-MSH, rapamycin 0.5 μM 24 hrs, 6-CEPN 10 μM, 8-CEPQ 5 μM 72 hrs
Procedure: Melan-a cells (1.5×10^5 cells/well) were seeded on coverslips in 6-well palte. The cells were treated with (1) α-MSH (1 μM) alone for 24 hrs, (2) α-MSH (1 μM) plus rapamycin (0.5 μM) for 24 hrs, (3) α-MSH (1 μM) plus 6-CEPN (10 μM), or (3) α-MSH (1 μM) plus 8-CEPQ (5 μM) for 72 hrs. Culture medium was removed carefully after the cells reached 50%˜70% level of confluence. Cells were stained by microscopy dual detection reagents (autophagy detection kit, Abcam) for 30 mins at 37° C. The stained cells were analyzed by wide-field fluorescence microscopy (60× magnification). Standard FITC filter and DAPI filter were set to image the autophagic signal and the nuclear signal, respectively.

[1] = tested on: MelanoDerm (Mel-300-A) epidermal equivalents containing melanocytes; experiment: Depigmentation in artificial skin model: brightness and L* value; assay type: cell-based, human; details: 6-CEPN 10 μM, 8-CEPQ 5 μM
Procedure: (§1) Epidermal equivalents containing melanocytes (Mel-300-A) were maintained according to the manufacturer's instructions. Mel-300-A tissue was cultured in EPI-100-NMM-113 medium for 14 days. Agents were dissolved in tissue culture medium and changed every other day. The test agents were either (1) rapamycin (2.5 μM), as the positive control in depigmentation, (2) 6-CEPN (10 μM), or (3) 8-CEPQ (5 μM). The concentration of rapamycin used was lower than 6-CEPN and 8-CEPQ, as rapamycin is toxic to cells at higher concentration. Pigmentation of these skin equivalents was compared against treatment of cells with a culture medium only (denoted as “vehicle”). Tissue viability was assessed on day 14 by CCK-8 assay as described in Example 1. On day 14, single tissues were harvested and photographed. The L* parameter was used to evaluate skin lightening or darkening. The lighter the skin, the greater the L* value. ΔL* value was measured by a Chroma Meter CR400 (Konica Minolta) for an evaluation of lightening as a function of time. Three tissues for each treatment were frozen for the Solvable Melanin assay (Bessou-Touya et al., “Chimeric human epidermal reconstructs to study the role of melanocytes and keratinocytes in pigmentation and photoprotection.” Journal of investigative dermatology 111(6):1103-1108 (1998)). Additional tissues were fixed by 10% formanin. For melanin staining in paraffin-embedded tissues, Fontana-Masson silver staining was used as previously detailed (Barbosa et al., “A simple and economical modification of the Masson-Fontana method for staining melanin granules and enterochromaffin cells.” Stain technology 59(4):193-196 (1984)).

[2] = tested on: MelanoDerm (Mel-300-A) epidermal equivalents containing melanocytes; experiment: Tissue viability of artificial skin model (CCK-8); assay type: cell-based, human; details: whole treatment period (14 days), rapamycin 2.5 μM, 6-CEPN 10 μM, 8-CEPQ 5 μM
Procedure: as §1

[3] = tested on: MelanoDerm (Mel-300-A) epidermal equivalents containing melanocytes; experiment: Solvable Melanin assay in artificial skin model; assay type: cell-based, human; details: 14 days, rapamycin 2.5 μM, 6-CEPN 10 μM, 8-CEPQ 5 μM
Procedure: Epidermal equivalents containing melanocytes (Mel-300-A) were maintained according to the manufacturer's instructions. Mel-300-A tissue was cultured in EPI-100-NMM-113 medium for 14 days. Agents were dissolved in tissue culture medium and changed every other day. The test agents were either (1) rapamycin (2.5 μM), as the positive control in depigmentation, (2) 6-CEPN (10 μM), or (3) 8-CEPQ (5 μM). The concentration of rapamycin used was lower than 6-CEPN and 8-CEPQ, as rapamycin is toxic to cells at higher concentration. Pigmentation of these skin equivalents was compared against treatment of cells with a culture medium only (denoted as “vehicle”). Tissue viability was assessed on day 14 by CCK-8 assay as described in Example 1. On day 14, single tissues were harvested and photographed. The L* parameter was used to evaluate skin lightening or darkening. The lighter the skin, the greater the L* value. ΔL* value was measured by a Chroma Meter CR400 (Konica Minolta) for an evaluation of lightening as a function of time. Three tissues for each treatment were frozen for the Solvable Melanin assay (Bessou-Touya et al., “Chimeric human epidermal reconstructs to study the role of melanocytes and keratinocytes in pigmentation and photoprotection.” Journal of investigative dermatology 111(6):1103-1108 (1998)). Additional tissues were fixed by 10% formanin. […]

[4] = tested on: MelanoDerm (Mel-300-A) epidermal equivalents containing melanocytes; experiment: Fontana-Masson silver staining of artificial skin model; assay type: cell-based, human; details: day 14, rapamycin 2.5 μM, 6-CEPN 10 μM
Procedure: as §1

| SMILES | tyrosinase activity (tyrosinase) | melanosome autophagy (melan-a cells) | brightness of the tissues (visual examination) ([1]; 14 days, rapamycin 2.5 μM) | L* value vs negative control ([1]; day 14, rapamycin 2.5 μM) | cytotoxicity (tissue viability) [2] | amount of melanin in human skin equivalents [3] | thickness of basal layer of tissue [4] |
| --- | --- | --- | --- | --- | --- | --- | --- |
| O=c1c(O)c(-c2ccc(O)c(O)c2)oc2c(/C=C/c3ccccc3)c(O)cc(O)c12 [8-CEPQ, 8-C-(E-phenylethenyl)-quercetin] | significant inhibition on tyrosinase activity in a dose-dependent manner | induced melanosome autophagy | increased the brightness of the tissues | increased the L* value | without significant cytotoxicity | significantly inhibited the amount of melanin | – |
| CO[C@H]1C[C@@H]2CC[C@@H](C)[C@@](O)(O2)C(=O)C(=O)N2CCCC[C@H]2C(=O)O[C@H]([C@H](C)C[C@@H]2CC[C@@H](O)[C@H](OC)C2)CC(=O)[C@H](C)/C=C(\C)[C@@H](O)[C@@H](OC)C(=O)[C@H](C)C[C@H](C)/C=C/C=C/C=C/1C [rapamycin, reference compound] | – | – | – | – | without significant cytotoxicity | – | thinner than 6-CEPN-treated or non-treated control groups |
